Data from the NIST ThermoML archive (doi:10.1016/j.jct.2017.03.026).
Values joined by “and” are separate entries in the source; they are usually repeats but may differ in a detail not shown here. Identical values can stand only once.

Assay: molar heat capacity at constant pressure
Conditions: 101.33 kPa, Crystal, Small (less than 1 g) adiabatic calorimetry

O.O.O.O.O.O=S(=O)([O-])[O-].[Cu+2] [copper(II) sulfate pentahydrate]
Conditions | molar heat capacity at constant pressure
147.86 K | 165.08 J/K/mol
148.14 K | 163.74 J/K/mol
148.35 K | 165.5 J/K/mol
148.79 K | 165.6 J/K/mol
148.94 K | 165.94 J/K/mol
149.18 K | 164.71 J/K/mol
149.89 K | 165.56 J/K/mol
150 K | 165.6 J/K/mol
150.02 K | 166.77 J/K/mol
150.23 K | 165.8 J/K/mol
150.52 K | 166.26 J/K/mol
150.77 K | 167.63 J/K/mol
151.09 K | 168 J/K/mol
151.27 K | 167.02 J/K/mol
151.52 K | 168.7 J/K/mol
151.97 K | 167.63 J/K/mol
152.1 K | 169 J/K/mol
152.17 K | 169.13 J/K/mol
152.32 K | 167.82 J/K/mol
153.24 K | 170.02 J/K/mol
153.38 K | 169.02 J/K/mol
153.43 K | 170.11 J/K/mol
153.64 K | 169.31 J/K/mol
154.06 K | 169.63 J/K/mol
154.32 K | 171.06 J/K/mol
154.42 K | 169.98 J/K/mol
154.7 K | 171.74 J/K/mol
154.77 K | 171.25 J/K/mol
155.4 K | 172.12 J/K/mol
155.47 K | 171.07 J/K/mol
156.1 K | 172.57 J/K/mol
156.15 K | 171.68 J/K/mol
156.48 K | 173.12 J/K/mol
156.52 K | 172.03 J/K/mol
156.76 K | 172.32 J/K/mol
157.44 K | 173.97 J/K/mol
157.56 K | 174.08 J/K/mol
157.57 K | 172.98 J/K/mol
157.89 K | 174.79 J/K/mol
158.24 K | 173.62 J/K/mol
158.61 K | 173.88 J/K/mol
158.64 K | 175.11 J/K/mol
158.78 K | 175.17 J/K/mol
159.66 K | 174.82 J/K/mol
159.72 K | 176.1 J/K/mol
159.88 K | 175.23 J/K/mol
160 K | 175.2 J/K/mol
160.11 K | 176.48 J/K/mol
160.32 K | 175.83 J/K/mol
160.71 K | 175.82 J/K/mol
160.81 K | 177.05 J/K/mol
161.09 K | 177.82 J/K/mol
161.48 K | 177.68 J/K/mol
161.75 K | 176.91 J/K/mol
161.89 K | 178.2 J/K/mol
162.41 K | 177.56 J/K/mol
162.8 K | 177.97 J/K/mol
162.82 K | 178.9 J/K/mol
163 K | 179.4 J/K/mol
163.01 K | 178.38 J/K/mol
163.85 K | 178.9 J/K/mol
164.09 K | 180.26 J/K/mol
164.16 K | 180.28 J/K/mol
164.29 K | 180.86 J/K/mol
164.49 K | 179.69 J/K/mol
164.89 K | 179.88 J/K/mol
165.17 K | 181.13 J/K/mol
165.49 K | 181.52 J/K/mol
165.94 K | 180.9 J/K/mol
166.13 K | 181.26 J/K/mol
166.26 K | 182.01 J/K/mol
166.58 K | 181.3 J/K/mol
166.83 K | 182.73 J/K/mol
166.99 K | 181.72 J/K/mol
167.35 K | 183.04 J/K/mol
167.49 K | 183.69 J/K/mol
168.03 K | 182.66 J/K/mol
168.17 K | 183.76 J/K/mol
168.44 K | 184.44 J/K/mol
168.67 K | 183.22 J/K/mol
169.08 K | 183.64 J/K/mol
169.26 K | 184.18 J/K/mol
169.5 K | 184.87 J/K/mol
169.53 K | 185.06 J/K/mol
170 K | 184.5 J/K/mol
170.13 K | 184.56 J/K/mol
170.62 K | 186.24 J/K/mol
170.71 K | 186.66 J/K/mol
170.76 K | 185.15 J/K/mol
170.84 K | 186.28 J/K/mol
171.17 K | 185.59 J/K/mol
171.71 K | 187.47 J/K/mol
172.18 K | 187.68 J/K/mol
172.38 K | 187.03 J/K/mol
172.8 K | 188.14 J/K/mol
172.85 K | 187.26 J/K/mol
173.51 K | 188.79 J/K/mol
173.89 K | 188.9 J/K/mol
173.93 K | 189.4 J/K/mol
174.85 K | 189.91 J/K/mol
174.95 K | 188.94 J/K/mol
174.98 K | 190 J/K/mol
175.51 K | 189.78 J/K/mol
176.07 K | 191.28 J/K/mol
176.18 K | 191.23 J/K/mol
177.04 K | 190.61 J/K/mol
177.15 K | 192.53 J/K/mol
177.16 K | 191.97 J/K/mol
177.52 K | 192.4 J/K/mol
178.25 K | 192.97 J/K/mol
178.63 K | 192.28 J/K/mol
178.85 K | 193.69 J/K/mol
179.13 K | 192.37 J/K/mol
179.35 K | 194.03 J/K/mol
180 K | 193.2 J/K/mol
180.19 K | 194.75 J/K/mol
180.42 K | 195.75 J/K/mol
180.47 K | 195.63 J/K/mol
181.21 K | 194.29 J/K/mol
181.52 K | 196.05 J/K/mol
181.57 K | 196.1 J/K/mol
181.75 K | 194.99 J/K/mol
182.67 K | 197.05 J/K/mol
182.89 K | 197.45 J/K/mol
183.3 K | 195.97 J/K/mol
183.65 K | 198.96 J/K/mol
183.77 K | 198.41 J/K/mol
184.23 K | 198.67 J/K/mol
184.86 K | 199.51 J/K/mol
184.87 K | 197.91 J/K/mol
185.39 K | 197.77 J/K/mol
185.55 K | 200.51 J/K/mol
185.95 K | 200.62 J/K/mol
186.89 K | 201.62 J/K/mol and 202.38 J/K/mol
187.05 K | 201.82 J/K/mol
187.48 K | 199.99 J/K/mol
187.99 K | 200.27 J/K/mol
188.14 K | 203.75 J/K/mol
188.22 K | 203.53 J/K/mol
189.25 K | 204.46 J/K/mol
189.56 K | 204.62 J/K/mol
189.57 K | 201.44 J/K/mol
190 K | 201.9 J/K/mol
190.12 K | 206.13 J/K/mol
190.35 K | 205.41 J/K/mol
190.88 K | 206.97 J/K/mol
191.11 K | 202.91 J/K/mol
191.45 K | 206.67 J/K/mol
191.66 K | 203.21 J/K/mol
192.21 K | 207.95 J/K/mol
192.55 K | 207.97 J/K/mol
193.37 K | 209.23 J/K/mol
193.55 K | 208.35 J/K/mol
193.65 K | 208.94 J/K/mol
193.74 K | 205.3 J/K/mol
194.23 K | 206.14 J/K/mol
194.75 K | 209.89 J/K/mol
194.87 K | 210.1 J/K/mol
195.83 K | 207.12 J/K/mol
